Assay: Clinical pharmacokinetic study (RUN-001): vortioxetine 5 mg once daily for 29 days, then 28 days washout, obese vs normal-weight subjects
Type: in vivo, human
Conditions: both, human, in vivo
Procedure: To test if the obese patients would require different washout guidelines for preventing serotonin syndrome, 16 obese subjects (BMI≥35) and 13 normal subjects (BMI<25) completed a clinical trial where they were administered daily with low doses (5 mg/day) of vortioxetine for 29 days in a controlled study. All subjects were subsequently tracked for 28 days after discontinuing vortioxetine on day 29. Blood samples were collected and processed according to standard techniques.
The normal-weight control group consisted of healthy male and female volunteers aged 18 to 45 years. Their body mass index (BMI) values fell in the range of […]. […] Normal weight and obese subjects were matched as closely as possible for gender and age.
CYP2D6 genotype status was determined from whole blood samples drawn from each subject. Known alleles of CYP2D6 were tested for, as well as the presence of gene duplications (LabCorp, Inc.). CYP2D6 metabolizer status was categorized as ultra-rapid, extensive, intermediate, or poor. Ultra-rapid and poor metabolizers were not included in the study.
All subjects received vortioxetine, 5 mg once daily in the morning, for 29 days. The first dose was on Day 1, and the last dose was on Day 29. Blood sampling continued for another 28 days after the last dose, through Day 57.
Subjects spent 12 hours in the study unit on Day 1 (first dose of vortioxetine) and Day 29 (last dose of vortioxetine). On those two study days, venous blood samples (7 mL each) were drawn prior to the dose of vortioxetine, and at 1, 2, 4, 6, 8, 10, and 12 hours after dosage.
During the 29-day period of daily vortioxetine administration, subjects returned to the study unit in the morning of the following study days: 2, 3, 5, 8, 10, 12, 15, 17, 19, 22, 24, 26, and 29. At each visit, a single venous blood sample (7 mL) was drawn before the daily dose of vortioxetine. Subjects underwent a brief interview to assess subjective effects and possible adverse events. Subjects were then discharged until the next scheduled visit. They were provided with vortioxetine doses sufficient for daily morning administration until the next visit. No more than 2 consecutive doses of vortioxetine were taken on an outpatient basis.
On Day 29 (the final dose of vortioxetine), subjects spent 12 hours in the study unit as described above. They returned to the study unit for a single blood sample on the mornings of the following Days: 30, 31, 33, 36, 38, 40, 43, 45, 47, 50, 52, 54, and 57.
Plasma concentrations of vortioxetine were determined by liquid chromatography—mass spectrometry using a Shimadzu HPLC system coupled to a Sciex API-4000 mass spectrometer.
The internal standard (vortioxetine-d8) was added to calibration standards, quality control samples, and unknown study samples. All samples were extracted with methyl tert-butyl ether. The organic phase was separated and evaporated to dryness; the reconstituted extract was injected into the HPLC system. The HPLC column was a Unison UK-C18, 50 mm×2 mm, 3 micron particle size. The mobile phase consisted of an organic component (0.1% formic acid in acetonitrile) and an aqueous component (0.1% formic acid and 2 mM ammonium acetate in water). This was delivered in gradient mode at a net flow rate of 0.4 mL/min, with the organic fraction varying from 40% to 96%. m/z monitored were: 299.1/150.1 for vortioxetine, and 307.1/153 for vortioxetine-d8. The limit of quantitation was 0.1 ng/mL. […] All samples from a given study subject were extracted and analyzed at the same time using the same calibration standards.
Based on the clinical trials discussed above, several equations were derived which allow an individual to calculate the washout period (i.e., the time between stopping vortioxetine and initiating treatment with an MAOI). Data points to consisted of pre-dose plasma vortioxetine concentration (C) on each study day (t), both during (Days 1-29) and after (Days 30-57) the period of vortioxetine administration. […]

elimination half-life: 78.2 h
Structure (SMILES): CC[C@@H]([C@H](C)O)n1ncn(-c2ccc(N3CCN(c4ccc(OC[C@@H]5CO[C@@](Cn6cncn6)(c6ccc(F)cc6F)C5)cc4)CC3)cc2)c1=O [posaconazole]

From US12508261B2, “Methods of treating depression with vortioxetine” (Rundle Research LLC, priority 2017, dated 2025)
